According to ChEMBL document CHEMBL5329199, “Discovery of novel dual Bruton's tyrosine kinase (BTK) and Janus kinase 3 (JAK3) inhibitors as a promising strategy for rheumatoid arthritis” (Bioorg Med Chem, 2023):

Assays:
[1] = biological target: T1, Tyrosine-protein kinase JAK3 (Homo sapiens, UniProt P52333); test: Inhibition of JAK3 (unknown origin) preincubated for 10 mins followed by kinase substrate and ATP addition and measured for 30 mins by mobility shift assay
T1 sequence (P52333 whole entry): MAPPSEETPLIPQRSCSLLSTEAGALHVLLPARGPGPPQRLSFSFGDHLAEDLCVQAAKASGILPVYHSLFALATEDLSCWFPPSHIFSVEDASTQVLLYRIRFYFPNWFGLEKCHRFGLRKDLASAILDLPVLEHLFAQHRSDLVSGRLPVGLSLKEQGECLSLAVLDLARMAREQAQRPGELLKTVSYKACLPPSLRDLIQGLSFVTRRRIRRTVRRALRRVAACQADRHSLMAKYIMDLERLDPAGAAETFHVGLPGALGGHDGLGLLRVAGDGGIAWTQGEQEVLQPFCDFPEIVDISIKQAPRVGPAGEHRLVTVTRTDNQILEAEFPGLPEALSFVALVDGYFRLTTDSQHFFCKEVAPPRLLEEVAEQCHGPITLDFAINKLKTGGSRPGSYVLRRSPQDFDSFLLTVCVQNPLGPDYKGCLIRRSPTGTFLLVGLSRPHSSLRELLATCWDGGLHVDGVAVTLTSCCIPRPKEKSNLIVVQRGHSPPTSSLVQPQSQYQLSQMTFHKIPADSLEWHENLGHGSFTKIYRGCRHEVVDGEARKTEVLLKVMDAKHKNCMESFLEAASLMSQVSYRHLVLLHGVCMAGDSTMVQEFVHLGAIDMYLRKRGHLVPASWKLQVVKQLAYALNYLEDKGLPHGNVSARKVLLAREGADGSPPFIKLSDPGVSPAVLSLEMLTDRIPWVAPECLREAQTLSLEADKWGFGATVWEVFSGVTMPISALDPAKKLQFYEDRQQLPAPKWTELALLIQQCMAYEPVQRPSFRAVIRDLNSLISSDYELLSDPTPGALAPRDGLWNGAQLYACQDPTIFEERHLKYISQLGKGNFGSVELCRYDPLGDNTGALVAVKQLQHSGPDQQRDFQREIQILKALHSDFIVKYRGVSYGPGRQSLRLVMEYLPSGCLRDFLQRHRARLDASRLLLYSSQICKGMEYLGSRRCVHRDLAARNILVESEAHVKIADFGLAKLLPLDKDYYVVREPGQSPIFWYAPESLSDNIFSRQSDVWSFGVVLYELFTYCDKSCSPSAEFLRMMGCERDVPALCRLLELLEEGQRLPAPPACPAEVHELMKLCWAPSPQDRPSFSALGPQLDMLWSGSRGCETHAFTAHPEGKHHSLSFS

[2] = biological target: Tyrosine-protein kinase BTK (Homo sapiens, UniProt Q06187); test: Inhibition of BTK (unknown origin) preincubated for 10 mins followed by kinase substrate and ATP addition and measured for 20 mins by mobility shift assay
[3] = tested on: BaF3; test: Antiproliferative activity against mouse BaF3 cells expressing JAK3 mutant assessed as inhibition of cell growth incubated for 72 hrs by Cell Titer-Glo assay; assay type: functional, cell-based; conditions: BaF3, 72 h
[4] = Acute toxicity in po dosed ICR mouse assessed as minimum lethal dose measured for 7 days; assay type: organism-based; conditions: in vivo, 168 h, time 7 day
[5] = tested on: Daudi; test: Antiproliferative activity against human Daudi cells assessed as inhibition of cell growth incubated for 72 hrs by Cell Titer-Glo assay; assay type: functional, cell-based

Chain of Tyrosine-protein kinase BTK (Q06187 whole entry): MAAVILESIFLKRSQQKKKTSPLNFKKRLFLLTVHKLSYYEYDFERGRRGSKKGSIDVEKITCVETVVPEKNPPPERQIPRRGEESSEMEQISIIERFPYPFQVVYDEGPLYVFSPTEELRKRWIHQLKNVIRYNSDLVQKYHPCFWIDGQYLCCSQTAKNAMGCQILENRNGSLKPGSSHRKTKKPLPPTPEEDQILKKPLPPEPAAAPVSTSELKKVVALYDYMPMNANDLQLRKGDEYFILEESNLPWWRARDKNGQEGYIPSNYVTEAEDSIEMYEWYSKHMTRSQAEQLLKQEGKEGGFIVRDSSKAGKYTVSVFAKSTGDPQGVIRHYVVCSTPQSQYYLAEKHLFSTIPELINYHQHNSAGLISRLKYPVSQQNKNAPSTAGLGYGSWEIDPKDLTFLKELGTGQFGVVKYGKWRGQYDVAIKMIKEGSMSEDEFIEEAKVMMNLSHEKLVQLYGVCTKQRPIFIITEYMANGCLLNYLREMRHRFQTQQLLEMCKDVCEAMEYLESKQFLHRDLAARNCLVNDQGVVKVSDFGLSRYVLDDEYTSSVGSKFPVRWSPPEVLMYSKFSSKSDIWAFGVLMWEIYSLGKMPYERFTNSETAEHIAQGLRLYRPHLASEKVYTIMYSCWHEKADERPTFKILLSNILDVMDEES

| SMILES | IC50 [1] | IC50 [2] | IC50 [3] | MLD [4] | IC50 [5] |
| --- | --- | --- | --- | --- | --- |
| C=CC(=O)N1CCC[C@@H](n2nc(-c3ccc(NC(=O)C45CC6CC(CC(C6)C4)C5)c4c3OCO4)c3c(N)ncnc32)C1 | 500 nM | 5.94 nM | – | – | – |
| C=CC(=O)N1CCC[C@@H](n2nc(-c3ccc(NC(=O)C45CCC(CC4)C5)c4c3OCO4)c3c(N)ncnc32)C1 | 500 nM | 1.48 nM | – | – | – |
| C=CC(=O)N1CCC[C@@H](n2nc(-c3ccc(NC(=O)c4ccco4)c4c3OCO4)c3c(N)ncnc32)C1 | 192 nM | 1.48 nM | – | – | – |
| CC#CC(=O)N1CCC[C@@H](n2nc(-c3ccc(NC(=O)c4ccccc4)c4c3OCO4)c3c(N)ncnc32)C1 | > 10000 nM | 24 nM | – | – | – |
| C=CC(=O)N1CCC[C@@H](n2nc(-c3ccc(NC(=O)C4CCN(C)CC4)c4c3OCO4)c3c(N)ncnc32)C1 | > 10000 nM | 585 nM | – | – | – |
| C=CC(=O)N1CCC[C@@H](n2nc(-c3ccc(NC(=O)c4ccc(C#N)cc4)c4c3OCO4)c3c(N)ncnc32)C1 | 372 nM | 2.9 nM | – | – | – |
| N#C/C(=C\C1CC1)C(=O)N1CCC[C@@H](n2nc(-c3ccc(NC(=O)c4ccccc4)c4c3OCO4)c3c(N)ncnc32)C1 | > 10000 nM | 3 nM | – | – | – |
| C=CC(=O)Nc1cccc(Cn2nc(-c3ccc(NC(=O)c4ccccc4)c4c3OCO4)c3c(N)ncnc32)c1 | > 10000 nM | 29 nM | – | – | – |
| C=CC(=O)N1CCC[C@@H](n2nc(-c3ccc(Oc4ccccc4)cc3)c3c(N)ncnc32)C1 [IBRUTINIB] | – | – | 1420 nM | 750 mg/kg | 656 nM |

Further lines, with some results ahead:

| IC50 [1] | IC50 [2] | SMILES | IC50 [3] | MLD [4] | IC50 [5] |
| --- | --- | --- | --- | --- | --- |
| 19 nM | 0.42 nM | C=CC(=O)N1CCC[C@@H](n2nc(-c3ccc(NC(=O)c4cc5ccccc5s4)c4c3OCO4)c3c(N)ncnc32)C1 | – | – | – |
| 100 nM | 2.4 nM | C=CC(=O)N1CCC[C@@H](n2nc(-c3ccc(NC(=O)c4ccc[nH]4)c4c3OCO4)c3c(N)ncnc32)C1 | – | – | – |
| 44 nM | 1.3 nM | C=CC(=O)N1CCC[C@@H](n2nc(-c3ccc(NC(=O)c4ccc(Cl)cc4)c4c3OCO4)c3c(N)ncnc32)C1 | – | – | – |
| 147 nM | 3.4 nM | C=CC(=O)N1CCC[C@@H](n2nc(-c3ccc(NC(=O)c4ccc(OC)c(OC)c4)c4c3OCO4)c3c(N)ncnc32)C1 | – | – | – |
| 120 nM | 2.1 nM | C=CC(=O)N1CCC[C@@H](n2nc(-c3ccc(NC(=O)c4ccc(-c5ccccc5)cc4)c4c3OCO4)c3c(N)ncnc32)C1 | – | – | – |
| 51 nM | 1.8 nM | C=CC(=O)N1CCC[C@@H](n2nc(-c3ccc(NC(=O)c4ccc(C(F)(F)F)cc4)c4c3OCO4)c3c(N)ncnc32)C1 | – | – | – |
| 122 nM | 3.49 nM | C=CC(=O)N1CCC[C@@H](n2nc(-c3ccc(NC(=O)c4ccccc4N(C)C)c4c3OCO4)c3c(N)ncnc32)C1 | – | – | – |
